Entries after “also recorded” stand apart in the source; their conditions may differ.
Columns and labels:
3T3 fibroblasts = experiment: Proliferation and viability of cultured cells, 72 hr, cell count; type: cell-based, murine
Description: (§1) FIG. 19. Effect of GSAO on Proliferation of non-endothelial cells. 15,000 BxPC-3 (part A), HT1080 (part B), 3T3 (part C) or BVSM (part D) cells per well were seeded into gelatinised 24-well culture plates and allowed to attach for 24 hr. The media was then replaced with DMEM containing 0 to 1 mM GSAO or GSAA and either 5% BCS (part D) or 5% FCS (parts A, B and C). Cells were cultured for 72 hr and then dispersed and counted. The dotted lines indicate the cell number in control wells containing DMEM and 2% BCS (part D) or 2% FCS (parts A, B and C) which represented no to limited proliferation. The data points and errors represent the mean and range of duplicate wells.
(§2) BCE (Folkman et al. 1979), BAE, BxPC-3 (ATCC, Bethesda, Md.), HT1080 (Jiang et al., 1999), 3T3 (ATCC, Bethesda, Md.) and BVSM (Hogg et al., 1997) cells were harvested and cultured as indicated. Cells (0.5 mL of 30,000 or 100,000 cells per mL) were seeded into gelatinized 24-well culture plates (Corning Costar, Corning, N.Y.) in Dulbecco's Modified Eagle's Medium (DMEM, JHR Bioscience, Lenexa, Kans.) containing 10% fetal calf serum (FCS, Intergen Comp., Purchase, N.Y.) and 1% Glutamine Pen-Strep (GPS, Irvine Scientific, Santa Ana, Va.) and allowed to attach for 24 hr in 10% CO2 at 37° C. The media was then replaced with DMEM and 1% GPS containing 0 to 1 mM GSAO or GSAA and either 5% bovine calf serum (BCS, HyClone, Logan, Utah) and 1 ng per mL FGF-2 (Genzyme, Cambridge, Mass.) or 5% BCS and 10 ng per mL VEGF (Genzyme, Cambridge, Mass.) for BCE cells, 5% or 10% BCS for BAE cells, 5% BCS for BVSM cells, and 5% FCS for BxPC-3, HT1080 and 3T3 cells. Cells were cultured for 0 to 72 hr in 10% CO2 at 37° C. then dispersed in trypsin/EDTA (GibcoBRL, Granc Island, N.Y.), resuspended in Coulter balanced electrolyte solution and counted with a Z1 Coulter counter (Coulter Corp., Miami, Fla.). In all experiments there were two control wells containing DMEM with 1% GPS and either 5% BCS for BCE cells, 2% BCS for BAE and BVSM cells, or 2% FCS for BxPC-3, HT1080 and 3T3 cells. These wells represented no to limited proliferation.

BxPC-3 cells = experiment: as above; type: cell-based, human
Description: as §1, §2

HT1080 cells = experiment: as above; type: cell-based, human
Description: as §1, §2

HDMVE cells = experiment: Endothelial cell tube formation in Matrigel; type: cell-based, human; conditions: 18 hours; for effect on tube formation: 0.1, 1 or 100 μM
Description: FIG. 21. GSAO perturbs endothelial cell tube formation in Matrigel. Matrigel (100 μl) was added to wells of 96 well plates and allowed to gel for 60 minutes at 37° C. HDMVE cells (10,000 cells per well) in complete media containing 0.1, 1 or 100 μM GSAA or GSAO were seeded onto the Matrigel and the plates were incubated in 5% CO2, 37° C. The phase contrast micrographs were taken after 18 hours incubation.
Endothelial cells arrange into tube-like structures when seeded onto three-dimensional matrices such as the extracellular matrix preparation, Matrigel, or collagen. The tubes can be considered to represent immature blood vessels. Matrigel (100 μl, Becton Dickinson, Bedford, Mass.) was added to wells of 96 well plates (Gibco BRL, Gaithersburg, Md.) and allowed to gel for 60 minutes at 37° C. Human dermal microvascular endothelial (HDMVE) cells were harvested and cultured as described by Stathakis et al. (1997). HDMVE cells (8,000 cells per well) in 150 μl of M199 (Gibco BRL, Gaithersburg, Md.) media containing 30% pooled human serum, 50 μg per mL Heparin (Sigma, St. Louis, Mo.), 100 μg per mL Endothelial Cell Growth Supplement (Gibco BRL, Gaithersburg, Md.) and 0.1, 1 or 100 μM GSM or GSAO were seeded onto the Matrigel and the plates were incubated for 18 hours in 5% CO2, 37° C. Phase contrast micrographs of the wells were collected.

Human T cells (A3.01) = experiment: Membrane permeability, tritiated GSAO in cytosol; type: in vitro ADME; conditions: 50 μM GSAO
Description: Human T cells (A3.01) or adherent BAE cells were incubated with complete medium containing 50 μM GSAO and ˜100,000 counts per minute of tritiated GSAO for 1 or 72 hours. Tritiated GSAO was prepared exactly as described for GSAO except that glycine-2-^3H-glutathione (NEN, Boston, Mass.) was used in place of cold glutathione. The cells were washed and lysed by two cycles of freezing and thawing. The cytosolic constituents were collected by differential centrifugation (Ausbel et al., 2000) and the tritiated GSAO was measured. Only 0.5% of the total tritiated GSAO was found in the T cell cytosol and 0.04% in the BAE cytosol after 1 hour. Moreover, only 4.5% of the GSAO penetrated the T cell membrane after 72 hours of culture.

Thioredoxin = target: T1, Thioredoxin (Homo sapiens, UniProt P10599); experiment: Inhibition of thioredoxin-mediated reduction of 70 kDa fibronectin fragment; type: biochemical; conditions: 1 μM thioredoxin, 10 minutes
T1 construct: purchased American Diagnostica, Greenwich, Conn; host or cells: E. coli
T1 sequence (P10599 1-105): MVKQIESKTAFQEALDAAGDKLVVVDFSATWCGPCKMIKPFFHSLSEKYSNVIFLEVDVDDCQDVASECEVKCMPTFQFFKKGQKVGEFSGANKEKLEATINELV
Description: FIG. 13. Inhibition of thioredoxin by GSAO. Thioredoxin (1 μM) was incubated with GSAO (0, 1 or 10 μM) for 10 minutes at room temperature in 20 mM Hepes, 0.14 M NaCl, pH 7.4 buffer. The 70 kDa fibronectin fragment (10 μg per mL) was added and incubated for 5 minutes at room temperature. The reactions were labelled with MPB (100 μM) for 10 minutes at 37° C. The MPB was quenched with GSH (200 μM) for 10 minutes at 37° C. followed by Iodoacetamide (400 μM) for 10 minutes at room temperature. The MPB-labelled 70 kDa fragment was resolved on 5–15% SDS-PAGE, transferred to PVDF membrane and the MPB detected by blotting with streptavidin peroxidase. The positions of Mr markers are shown at left.
It was observed that thioredoxin reduced one or more protein disulfide bonds in the 70 kDa N-terminal fragment of fibronectin.

## N[C@@H](CCC(=O)N[C@@H](CSCC(=O)Nc1ccc([As](=O)(O)O)cc1)C(=O)NCC(=O)O)C(=O)O [GSAA, 4-(N-(S-glutathionylacetyl)amino)phenylarsonic acid, reference compound]
3T3 fibroblasts; 3T3, up to a concentration of 1 mM
  effect on proliferation or viability: no significant effect
BxPC-3 cells; BxPC-3, up to a concentration of 1 mM
  effect on proliferation or viability: no significant effect
HT1080 cells; HT1080, up to a concentration of 1 mM
  effect on proliferation or viability: no significant effect
HDMVE cells
  effect on tube formation: no apparent effect

## NC(CCC(=O)NC(CSCC(=O)Nc1ccc([As]=O)cc1)C(=O)NCC(=O)O)C(=O)O (centres unmarked) [GSAO, 4-(N-(S-glutathionylacetyl)amino)-phenylarsenoxide]
3T3 fibroblasts; 3T3, 5% FCS, 72 hr
  Proliferation IC50: did not affect the proliferation; also recorded: No effect
3T3 fibroblasts; Mus musculus, Fibroblast, 3T3, 5% FCS, 72 hr
  IC50: ~40 µM
BxPC-3 cells; BxPc3, 5% FCS, 72 hr
  Proliferation IC50: did not affect the proliferation; also recorded: No effect
BxPC-3 cells; Homo sapiens, BXPC-3, BxPc3, 5% FCS, 72 hr
  IC50: ~40 µM
HT1080 cells; HT1080, 5% FCS, 72 hr
  Proliferation IC50: did not affect the proliferation; also recorded: No effect
HT1080 cells; Homo sapiens, HT-1080, HT1080, 5% FCS, 72 hr
  IC50: ~40 µM
Human T cells (A3.01); 1 hour
  total tritiated GSAO found in the cytosol: 0.5%
Human T cells (A3.01); 72 hours of culture
  GSAO that penetrated the T cell membrane: 4.5%
Thioredoxin; 1 μM GSAO
  inhibition at 1 µM: ~50%
Thioredoxin; 10 μM GSAO
  inhibition of thioredoxin activity: completely inhibited
HDMVE cells
  effect on tube formation: perturbed tube formation
  concentration at which effects on tube formation were apparent: 0.1 µM
  concentration at which effects on tube formation were marked: 100 µM

From patent publication US7186695B2 (priority 2001, dated 2007)
